Publication PMC11340618 (iScience, 2024)
Values after ≈ are worked out from the molar mass of the structure shown. Values joined by “and” are separate entries in the source; they are usually repeats but may differ in a detail not shown here. Identical values can stand only once. Like-named read-outs stand apart in the source and are kept apart here.

Assays:
[1] = system: intracellular M. tuberculosis H37Rv (WT); test: microbe, parasite or virus in culture; type: cell-based; settings: Mycobacterium tuberculosis, 72 h
[2] = system: intracellular M. tuberculosis ΔptpA; type: cell-based, Mycobacterium tuberculosis
GSK3β = molecular target: T1, GSK3β (Homo sapiens, UniProt P49841); test: in vitro inhibition of GSK3β, ADP-Glo Kinase assay (SignalChem); type: biochemical; settings: normalized to negative control
T1 construct: purchased SignalChem (Richmond, BC, Canada), contract assay service
Description: Samples of three GSK3 inhibitors (P-4423632, P-0717632, P-3817632) were sent to SignalChem (Richmond, BC, Canada) where a compound selectivity assay was performed and the IC50 values of the inhibitors were determined.
Figure S3: in vitro inhibition of GSK3β by selected inhibitors, related to Star Methods: Determination of IC50 of GSK3 inhibitors. GSK3β activity was measured using the ADP-GloTM Kinase assay and normalized to the negative control (100% kinase activity). Curve was fit using non-linear regression analysis calculated with GraphPad Prism software.
(also on this page, place not known: % Inhibition GSK3β % Inhibition GSK3β % Inhibition GSK3β IC50)

[3] = system: Mycobacterium tuberculosis H37Rv in THP-1; test: Minimal inhibitory concentrations of P-4423632 against Mtb H37Rv in THP-1 (Table S3); type: cell-based
From the text: Table S3. Minimal inhibitory concentrations of P-4423632 against Mycobacterium tuberculosis H37Rv in cell lines and in broth, and inhibitory concentrations (toxicity level) to THP-1 cells. Related to Figure 2.

[4] = system: Mycobacterium tuberculosis H37Rv in hMDM; test: microbe, parasite or virus in culture; type: cell-based
[5] = Cytotoxicity analysis (MTT assay); type: cell-based; settings: human, differentiated THP-1 cells, toxicity level to THP-1 cells
Description: The MTT assay was performed as described previously.[19] […] At the 69.5-hour time point, 25 μL of 3-(4,5-dimethylthiazol-2-yl)-2,5-diphenyltetrazolium bromide (MTT) solution were added to each well. […] The absorbance of each well was read at 570 nm and these values were used to calculate the percentage of viable cells.

Acinetobacter baumannii = test: Disk assay, in vitro activity; type: cell-based
Bacillus subtilis = test: Disk assay, in vitro activity; type: cell-based
Escherichia coli = test: Disk assay, in vitro activity; type: cell-based
Enterococcus faecalis = test: Disk assay, in vitro activity; type: cell-based; settings: up to 25 μg of P-4423632
Moraxella catarrhalis = test: Disk assay, in vitro activity; type: cell-based
Pseudomonas aeruginosa = test: Disk assay, in vitro activity; type: cell-based
Staphylococcus aureus = test: Disk assay, in vitro activity; type: cell-based
MRSA = test: Disk assay, in vitro activity; type: cell-based; settings: up to 25 μg of P-4423632
[6] = system: Staphylococcus epidermidis; test: Disk assay, in vitro activity; type: cell-based
Salmonella typhimurium = test: Disk assay, in vitro activity; type: cell-based
Mycobacterium marinum = test: Disk assay, in vitro activity; type: cell-based; settings: up to 25 μg of P-4423632
[7] = system: Mycobacterium intracellulare; test: Disk assay, in vitro activity; type: cell-based
Mycobacterium bovis BCG = type: cell-based
Mycobacterium smegmatis = type: cell-based; settings: up to 100 μg of P-4423632
Mycobacterium abscessus = type: cell-based; settings: up to 100 μg of P-4423632
[8] = system: Mycobacterium tuberculosis H37Rv auxotroph, mc2 6206; type: cell-based
M. avium avium = test: Disk assay, in vitro activity; type: cell-based
[9] = system: panel of bacteria, including Mtb; type: cell-based
[10] = system: intracellular Mtb in GSK3α KO / GSK3β KO THP-1 cells; type: cell-based, Mycobacterium tuberculosis; settings: 10 μM P-4423632, 72 h
THP-1 cells = test: Annexin V FITC apoptosis assay, flow cytometry; type: cell-based, human
[11] = system: Campylobacter jejuni in Caco-2 cells; test: Caco-2 infection with C. jejuni, CFU; type: cell-based; settings: two-fold serial dilutions, 24h
Description: Isolated colonies from overnight culture grown on Muller -Hinton (MH) plates in microaerophilic conditions were inoculated into liquid MH media and grown overnight. Bacteria were pelleted by centrifugation and resuspended in DMEM media. The bacteria were then added at an MOI of 100-400 to Caco-2 cells in 24-well plates at 10^5 cells per well. After 2 h of incubation, infected cells were washed with fresh DMEM and incubated an additional 2 h with 100-200 μg/ml gentamycin followed by the addition of test compounds and incubation for 24 h. After incubation, cells were washed with fresh DMEM and lysed by osmotic shock with sterile […] and passed through a 27G needle with a syringe. The lysate was serially diluted and plated in MH agar using the pouring plate method. CFU were then counted after a 24 - 48 h incubation. To assess cell survival, a duplicate of the previous conditions was used to undergo MTT assay or cell count with the CX5 using DAPI staining. […]
intracellular bacteria. Related to Star Methods describing C. Jejuni and S. enterica infections. […] Percent inhibition was calculated by subtracting CFU values as a percentage of the untreated DMSO control (plotted at 0.1 µM) from 100%. […] Curve was fit using non-linear regression analysis of log (inhibitor) vs. response (variable slope) calculated with GraphPad Prism 10. […]

[12] = system: Salmonella enterica serovar Typhimurium in THP-1 cells; test: THP-1 infection with S. typhimurium, high content screening; type: cell-based; settings: MOI 10:1, 24h
[13] = system: GSK3α Y279 / GSK3β Y216 phosphorylation; test: Western blot of Y279 - Y216 phosphorylation status of GSK3α and GSK3β in THP-1 cells; type: cell-based, human
[14] = system: intracellular Mtb H37Rv in THP-1 cells; test: Dose dependent activity against intracellular Mtb, high content analysis of fluorescent Mtb (Fig 3E); type: cell-based, Mycobacterium tuberculosis
[15] = system: Mycobacterium tuberculosis H37Rv in broth; test: In-broth activity analysis (resazurin assay)
Mtb infection = system: Mtb infection; set-up: method as in PMID 35095838; settings: GSK3α/β inhibition ref 56; cited from earlier work

T1 sequence (P49841 whole entry): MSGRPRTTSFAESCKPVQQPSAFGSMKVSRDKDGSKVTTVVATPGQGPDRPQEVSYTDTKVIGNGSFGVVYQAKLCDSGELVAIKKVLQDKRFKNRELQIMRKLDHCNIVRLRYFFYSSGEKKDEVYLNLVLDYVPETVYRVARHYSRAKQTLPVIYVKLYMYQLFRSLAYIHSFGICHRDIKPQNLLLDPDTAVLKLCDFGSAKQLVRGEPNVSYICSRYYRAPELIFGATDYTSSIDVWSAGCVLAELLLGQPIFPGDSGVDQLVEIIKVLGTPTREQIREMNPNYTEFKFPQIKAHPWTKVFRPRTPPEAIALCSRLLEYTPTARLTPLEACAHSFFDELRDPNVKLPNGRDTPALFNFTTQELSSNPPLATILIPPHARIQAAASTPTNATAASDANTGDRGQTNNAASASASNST

## CSc1ccc(-n2cnc3ccc(-c4nnc(CCc5cccc(C#N)c5)o4)cc32)cc1 [P-0717632]
[1]
  MIC50: 0.4 µM (≈ 0.175 µg/mL)
[2]
  MIC25 ΔptpA: > 25 µM
  MIC50 ΔptpA: > 25 µM

## CSc1ccc(-n2cnc3ccc(-c4nnc(CCc5cccc(C(F)(F)F)c5)o4)cc32)cc1 [P-3817632]
GSK3β
  IC50: 0.28 µM
[1]
  MIC25: 0.6 µM (≈ 0.288 µg/mL)
  MIC50: 2 µM (≈ 0.961 µg/mL)
[2]
  MIC25 ΔptpA: 13.8 µM (≈ 6.63 µg/mL)
  MIC50 ΔptpA: > 25 µM

## O=C(NCc1ccccn1)Nc1cc(N2CC(CCc3ccccc3)CC2=O)ccn1 (stereo not shown) [P-4423632]
GSK3β
  IC50: 0.748 µM
[1]
  MIC25: 2.9 µM (≈ 1.2 µg/mL)
  MIC50: 6.4 µM (≈ 2.66 µg/mL)
[2]
  MIC25 ΔptpA: > 25 µM
  MIC50 ΔptpA: > 25 µM
[3]; H37RV, THP-1, read-out: (M)IC50
  IC50: 2.31e-06 M
[3]; Mtb H37Rv in THP-1
  IC90: 16 µM
[4]; Mycobacterium tuberculosis, Macrophage, Mtb H37Rv in hMDM
  IC50: 4.17 µM
[4]; hMDMs combined from two donors, 72 h
  effect on Mtb intracellular replication in hMDMs: restricted Mtb intracellular replication in a dose dependent manner
[5]; read-out: (M)IC50, cytotoxicity in THP1
  IC50 at 72 h: 7.78e-05 M
[5]; read-out: (M)IC90, cytotoxicity in THP1
  IC90 at 72 h: 0.000115 M
Acinetobacter baumannii; up to 25 μg of P-4423632
  Disk assay susceptibility: R
Bacillus subtilis; up to 25 μg of P-4423632
  Disk assay susceptibility: R
Escherichia coli; up to 25 μg of P-4423632
  Disk assay susceptibility: R
Enterococcus faecalis
  Disk assay susceptibility: R
Moraxella catarrhalis; up to 25 μg of P-4423632
  Disk assay susceptibility: R
Pseudomonas aeruginosa; up to 25 μg of P-4423632
  Disk assay susceptibility: R
Staphylococcus aureus; up to 25 μg of P-4423632
  Disk assay susceptibility: R
MRSA
  Disk assay susceptibility: R
[6]; up to 25 μg of P-4423632
  Disk assay susceptibility: R
Salmonella typhimurium; up to 25 μg of P-4423632
  Disk assay susceptibility: R
Mycobacterium marinum
  Disk assay susceptibility: R
[7]; up to 25 μg of P-4423632
  Disk assay susceptibility: R
Mycobacterium bovis BCG; up to 25 μg of P-4423632
  Disk assay susceptibility: R
Mycobacterium smegmatis
  Disk assay susceptibility: R
Mycobacterium abscessus
  Disk assay susceptibility: R
[8]
  Disk assay susceptibility: R
M. avium avium; up to 25 μg of P-4423632
  Disk assay susceptibility: R
[9]
  activity in disk-diffusion antibiotics susceptibility assay: inactive
[10]; GSK3α KO THP-1 cells
  Reduction % of intracellular Mtb survival vs untreated counterpart: over 75%
[10]; GSK3β KO THP-1 cells
  Reduction % of intracellular Mtb survival vs untreated counterpart: ~50%
THP-1 cells
  Apoptotic cells: 16.31% and 30.57% and 31.59%
  Dead cells: 9.32% and 6.98%
  Live cells: 67.62% and 58.79% and 58.44%
  effect on apoptosis of infected THP-1 cells: upregulation of apoptosis
[11]
  activity against intracellular C. jejuni: active in a dose-dependent manner
[12]
  activity against intracellular S. Typhimurium: active in a dose-dependent manner
[13]
  phosphorylation of GSK3α Y279 and GSK3β Y216: reduced phosphorylation of both Y279 and Y216
[14]
  dose-dependent activity against intracellular Mtb: dose-dependent activity
hMDM
  effect on host cell viability: no effect on host cell viability
[15]; in broth vs intracellular
  in-broth MIC50 compared to intracellular activity: over 10 fold
[15]; read-out: (M)IC50, Mtb H37Rv in broth
  IC50: 3.88e-05 M
[15]; read-out: (M)IC90, Mtb H37Rv in broth
  IC90: 4.33e-05 M

## Cc1nnc(-c2ccc3occ(-c4ccc([S+](C)[O-])c(OC(F)(F)F)c4)c3c2)o1 (stereo not shown) [P-5782442]
[1]
  MIC25: 1.6 µM (≈ 0.676 µg/mL)
  MIC50: > 25 µM
[2]
  MIC25 ΔptpA: > 25 µM
  MIC50 ΔptpA: > 25 µM

## Cn1cc(C2=C(c3ccc(Cl)cc3Cl)C(=O)NC2=O)c2ccccc21 [SB216763]
Mtb infection
  effect on Mtb infection: increased Mtb infection

## Gentamycin [reference compound]
Acinetobacter baumannii; Gen 10 μg
  Control (mm), disk assay clearing: 20 mm
Bacillus subtilis; Gen 10 μg
  Control (mm), disk assay clearing: 24 mm
Escherichia coli; Gen 10 μg
  Control (mm), disk assay clearing: 18 mm
Moraxella catarrhalis; Gen 10 μg
  Control (mm), disk assay clearing: 30 mm
Pseudomonas aeruginosa; Gen 10 μg
  Control (mm), disk assay clearing: 21 mm
Staphylococcus aureus; Gen 10 μg
  Control (mm), disk assay clearing: 25 mm
[6]; Gen 10 μg
  Control (mm), disk assay clearing: 26 mm
Salmonella typhimurium; Gen 10 μg
  Control (mm), disk assay clearing: 20 mm
[7]; Gen 12.5 μg
  Control (mm), disk assay clearing: 20 mm
Mycobacterium bovis BCG; Gen 10 μg
  Control (mm), disk assay clearing: 30 mm
M. avium avium; Gen 12.5 μg
  Control (mm), disk assay clearing: 21 mm
